Test results from patent US20050250801A1, “Method of treating cancer with azaspirane compositions” (priority 2003, published 2005).
Like-named read-outs stand apart in the source and are kept apart here.

Experiments:
Assay in all cases: NCI in vitro SRB assay, Breast Cancer
Assay type in all cases: cell-based
MCF7 = conditions: for CC50 / GI50: Homo sapiens
Description: (§1) An in vitro assay which tested the ability of N,N,-diethyl-8,8-dipropyl-2-azaspiro[4,5]decane-2-propanamine dimaleate (Compound 1) to inhibit the growth of known cancer cell lines was performed by the National Cancer Institute in accordance with standard procedures. See: Lin, Z. X., Hoult, J. R., and Raman, A. Sulphorhodamine B assay for measuring proliferation of a pigmented melanocyte cell line and its application to the evaluation of crude drugs used in the treatment of vitiligo. J Ethnopharmacol. 66: 141-150, 1999. Briefly, selected tumor cell lines were cultured in media containing five different concentrations of Compound 1. After 48 hours of continuous exposure, a sulforhodamine B (SRB) assay was used to estimate cell viability or growth via optical measurements.
(§2) From the measurements, the following values were determined: 1) the concentration of Compound 1 at which a tumor cell growth inhibition of 50% (relative to control) occurs (GI50), 2) the concentration of Compound 1 at which no growth occurs (total growth inhibition, TGI), and 3) the concentration of Compound 1 at which the […] (LC 50). […] FIG. 6 illustrates, graphically, tumor cell growth as a function of Compound 1 concentration of the scanned tumor cell lines.

MDA-MB-231/ATCC = conditions: for GI50 / CC50: Homo sapiens
Description: as §1, §2

MDA-MB-435 = conditions: for CC50 / GI50: Homo sapiens
Description: as §1, §2

T-47D = test system: T-47D
Description: as §1, §2

[1] = MDA-MB-231/ATCC, Log10 conc -4.0 Moles/L
[2] = MDA-MB-231/ATCC, Log10 conc -5.0 Moles/L
[3] = MDA-MB-231/ATCC, Log10 conc -6.0 Moles/L
[4] = MDA-MB-231/ATCC, Log10 conc -7.0 Moles/L
[5] = MDA-MB-231/ATCC, Log10 conc -8.0 Moles/L
[6] = MDA-MB-435, Log10 conc -4.0 Moles/L
[7] = MDA-MB-435, Log10 conc -5.0 Moles/L
[8] = MDA-MB-435, Log10 conc -6.0 Moles/L
[9] = MDA-MB-435, Log10 conc -7.0 Moles/L
[10] = MDA-MB-435, Log10 conc -8.0 Moles/L

## CCCC1(CCC)CCC2(CCN(CCCN(CC)CC)C2)CC1.O=C(O)/C=C\C(=O)O.O=C(O)/C=C\C(=O)O [Compound 1, N,N,-diethyl-8,8-dipropyl-2-azaspiro[4,5]decane-2-propanamine dimaleate]
MCF7; MCF7, read-out: LC50
  CC50: 5600 nM
MCF7; MCF7, read-out: Log10 LC50 (converted)
  CC50: 5620 nM
MCF7; MCF7, read-out: GI50
  GI50: 1330 nM
MCF7; MCF7, read-out: Log10 GI50 (converted)
  GI50: 1320 nM
MCF7; MCF7
  Log10 TGI: −5.56
  TGI: 2730 nM
MCF7; MCF7, Log10 conc -4.0 Moles/L
  Mean Optical Densities: 0.051
  Percent Growth: −70%
MCF7; MCF7, Log10 conc -5.0 Moles/L
  Mean Optical Densities: 0.017
  Percent Growth: −90%
MCF7; MCF7, Log10 conc -6.0 Moles/L
  Mean Optical Densities: 0.996
  Percent Growth: 70%
MCF7; MCF7, Log10 conc -7.0 Moles/L
  Mean Optical Densities: 1.339
  Percent Growth: 99%
MCF7; MCF7, Log10 conc -8.0 Moles/L
  Mean Optical Densities: 1.311
  Percent Growth: 96%
MDA-MB-231/ATCC; MDA-MB-231, MDA-MB-231/ATCC, read-out: GI50
  GI50: 1090 nM
MDA-MB-231/ATCC; MDA-MB-231, line printed "231/ATCC" (second line of the wrapped name), read-out: Log10 GI50 (converted)
  GI50: 1860 nM
MDA-MB-231/ATCC; MDA-MB-231, line printed "MDA-MB-" (first line of MDA-MB-231/ATCC), read-out: Log10 GI50 (converted)
  GI50: 1100 nM
MDA-MB-231/ATCC; MDA-MB-231, read-out: LC50, MDA-MB-231/ATCC
  CC50: 5180 nM
MDA-MB-231/ATCC; MDA-MB-231, read-out: Log10 LC50, line printed "231/ATCC" (second line of the wrapped name) (converted)
  CC50: 8510 nM
MDA-MB-231/ATCC; MDA-MB-231, read-out: Log10 LC50, line printed "MDA-MB-" (first line of MDA-MB-231/ATCC) (converted)
  CC50: 5130 nM
MDA-MB-231/ATCC; MDA-MB-231/ATCC
  TGI: 2370 nM
MDA-MB-231/ATCC; [1]
  Mean Optical Densities: 0.038
  Percent Growth: −94%
MDA-MB-231/ATCC; [2]
  Mean Optical Densities: 0.053
  Percent Growth: −92%
MDA-MB-231/ATCC; [3]
  Mean Optical Densities: 0.839
  Percent Growth: 55%
MDA-MB-231/ATCC; [4]
  Mean Optical Densities: 0.863
  Percent Growth: 63%
MDA-MB-231/ATCC; [5]
  Mean Optical Densities: 0.897
  Percent Growth: 75%
MDA-MB-231/ATCC; line printed "231/ATCC" (second line of the wrapped name)
  Log10 TGI: −5.40
MDA-MB-231/ATCC; line printed "MDA-MB-" (first line of MDA-MB-231/ATCC)
  Log10 TGI: −5.63
MDA-MB-435; MDA-MB-435, read-out: LC50
  CC50: 6190 nM
MDA-MB-435; MDA-MB-435, read-out: Log10 LC50 (converted)
  CC50: 5890 nM
MDA-MB-435; MDA-MB-435, read-out: GI50
  GI50: 267 nM
MDA-MB-435; MDA-MB-435 (so in the source), read-out: Log10 GI50 (converted)
  GI50: 1780 nM
MDA-MB-435; MDA-MB-435
  TGI: 807 nM
MDA-MB-435; MDA-MB-435 (so in the source)
  Log10 TGI: −5.49
MDA-MB-435; [6]
  Mean Optical Densities: 0.244
  Percent Growth: −58%
MDA-MB-435; [7]
  Mean Optical Densities: 0.230
  Percent Growth: −61%
MDA-MB-435; [8]
  Mean Optical Densities: 0.528
  Percent Growth: −10%
MDA-MB-435; [9]
  Mean Optical Densities: 1.517
  Percent Growth: 94%
MDA-MB-435; [10]
  Mean Optical Densities: 1.613
  Percent Growth: 104%
T-47D
  TGI: 4110 nM
T-47D; Homo sapiens, T47D
  GI50: 1710 nM
T-47D; Log10 conc -4.0 Moles/L
  Mean Optical Densities: 0.207
  Percent Growth: −38%
T-47D; Log10 conc -5.0 Moles/L
  Mean Optical Densities: 0.164
  Percent Growth: −51%
T-47D; Log10 conc -6.0 Moles/L
  Mean Optical Densities: 1.024
  Percent Growth: 81%
T-47D; Log10 conc -7.0 Moles/L
  Mean Optical Densities: 1.176
  Percent Growth: 98%
T-47D; Log10 conc -8.0 Moles/L
  Mean Optical Densities: 0.837
  Percent Growth: 59%
